{
  "source": "patent US11319348B2",
  "about": "“Synthetic beta-amyloid peptides capable of forming stable antigenic oligomers” (The Regents of the University of California, priority 2016, dated 2022)",
  "key": {"A11 antibody": {"test_system": "A11 antibody", "test": "dot blot with A11 antibody", "type": "binding", "description": "The LDH release and caspase-3 activation studies indicate that trimers 3 and 4 behave similarly to oligomers of full-length Aβ, providing evidence for the biological significance of the triangular assembly. To further evaluate how the biological properties of trimers 3 and 4 compare to those of full-length Aβ, the reactivity of trimers 3 and 4 with the conformation specific antibody A11 was examined. […] The structures of the A oligomers recognized by the A11 antibody are not known. We investigated whether the A11 antibody recognizes trimers 3 and 4 by dot blot analysis.\nA 10 mg/mL stock solution of peptides 1 or 2, or trimers 3 or 4 was prepared gravimetrically by dissolving 1 mg of each compound in 100 μL of deionized water that was either filtered through a 0.2 μm syringe filter. An aliquot of each stock solution was diluted with deionized water to make 3 mg/mL solutions. The 3 mg/mL solutions were then serially diluted with deionized water to create 1.5 mg/mL, 0.75 mg/mL, and 0.37 mg/mL solutions. A 5 μL aliquot of each solution from the serial dilution was combined with 5 μL of a 2× solution of phosphate buffered saline (PBS) at pH 7.4 to generate 1.5 mg/mL, 0.75 mg/mL, and 0.37 mg/mL, and 0.18 mg/mL buffered solutions of peptides 1 or 2 or trimers 3 or 4. A 1-μL aliquot of each buffered solution was spotted onto a nitrocellulose membrane and allowed to aft dry (˜5 min). Non-reactive sites were blocked with 10% (w/v) non-fat powdered milk in low-Tween Tris-buffered saline (TBS-IT: 20 mM Tris, 137 mM NaCl; 0.01% Tween 20, pH 7.6) for 1 h at room temperature with rocking. The membrane was then incubated while rocking overnight at 4° C. in primary A11 antibody (200 μg/mL) in 5% non-fat powdered milk in TBS-IT. The next day, the membrane was washed with TBS-IT for 5 min (3×). The membrane was then incubated while rocking with horseradish peroxidase conjugated goat anti-rabbit antibody (100 μg/mL) (Jackson ImmunoResearch catalog #111-035-003) in 5% non-fat powdered milk in TBS-IT for 1 h at room temperature. The membrane was then washed with TBS-IT for 5 min (3×). A 10 mL portion of chemiluminescence substrate (Thermo Scientific SuperSignal West Femto Maximum Sensitivity Substrate, product #34095) was prepared according to manufacturer's protocol and poured onto the membrane. The membrane was allowed to incubate in the chemiluminescence substrate for ˜10 min before imaging. The blot was imaged using a standard digital SLR camera."}, "[1]": {"test": "size exclusion chromatography in sodium acetate buffer", "type": "physicochemical", "conditions": "for oligomer state consistent with SEC elution volume: acetate buffer; for oligomer size by SEC: sodium acetate buffer pH 4.5", "method": "The elution profiles in acetate buffer of trimers were compared to peptides 1 and 2. Size standards vitamin B12 (1.3 kDa), aprotinin (6.5 kDa), and […] (12.4 kDa) eluted at 18.6 mL, 15.4 mL, and 13.4 mL, respectively (FIG. 31A). Trimer 3 and […] eluted at 14.3 mL and at 14.5 mL, respectively. These elution volumes are consistent with the molecular weight of a hexamer (10.6 kDa). The peaks for trimers 3 and 4 tail slightly and may reflect a trimer-hexamer equilibrium in which the hexamer predominates.\nPeptides 1 and 2 elute at 16.8 mL and 17.3 mL, respectively.\nThe oligomerization of peptides 1 and 2 and trimers 3 and 4 was studied by size-exclusion chromatography (SEC) at 4 CC in 50 mM sodium acetate/50 mM acetic acid buffer (sodium acetate buffer) at pH 4.5 as follows: Each peptide or trimer was dissolved in deionized water to a concentration of 10 mg/mL. The peptide or trimer solutions were then diluted to 1 mg/mL by adding 80 μL of the 10 mg/mL solutions to 720 μL of sodium acetate buffer. The peptide or trimer solutions were loaded onto a GE Superdex 75 10/300 GL column at 0.5 mL/min over 1 min. After loading, the samples were run with sodium acetate buffer at 1 mL/min, Chromatograms were recorded at 214 nm and normalized to the highest absorbance value. Standards (cytochrome C, aprotinin, and vitamin B12) were run in the same fashion."}},
  "note": "Non-standard residues stand in square brackets, D forms with d. No end group written: not given here. NMeF = CN[C@@H](Cc1ccccc1)C(=O)O; Orn = NCCC[C@H](N)C(=O)O",
  "data": [
    {"substance": "peptide 1: macrocyclic β-sheet peptide: Aβ17-23 and Aβ30-36 strands linked by two δOrn turns, Orn35, N-methyl on G33 (Seq. ID 18-19)", "values": [
      {"measurement": "A11 reactivity", "setting": "A11 antibody", "result": "no"},
      {"measurement": "reaction with A11 antibody", "setting": "A11 antibody", "result": "do not"},
      {"measurement": "oligomer state consistent with SEC elution volume", "setting": "[1]", "result": "dimers"},
      {"measurement": "oligomer size by SEC", "setting": "[1]", "result": "1-2"}
    ]},
    {"substance": "peptide 2: macrocyclic β-sheet peptide: Aβ17-23 and Aβ30-36 strands linked by two δOrn turns, Orn35, N-methyl on F20 (Seq. ID 20-21)", "values": [
      {"measurement": "A11 reactivity", "setting": "A11 antibody", "result": "no"},
      {"measurement": "reaction with A11 antibody", "setting": "A11 antibody", "result": "do not"},
      {"measurement": "oligomer state consistent with SEC elution volume", "setting": "[1]", "result": "dimers"},
      {"measurement": "oligomer size by SEC", "setting": "[1]", "result": "1-2"}
    ]},
    {"substance": "trimer 3: symmetric tris-disulfide crosslinked trimer generated from peptide 3 (chain 1 [Orn]CVFFCED; chain 2 [Orn]AIIGL[Orn]V; not fully specified (some residues); also: symmetric tris-disulfide crosslinked trimer, macrocyclic by macrolactamization, linkage of strands not given here)", "values": [
      {"measurement": "A11 reactivity", "setting": "A11 antibody", "result": "yes"},
      {"measurement": "reaction with A11 antibody", "setting": "A11 antibody", "result": "react with the A11 antibody"},
      {"measurement": "oligomer state consistent with SEC elution volume", "setting": "[1]", "result": "hexamer"},
      {"measurement": "oligomer size by SEC", "setting": "[1]", "result": 6}
    ]},
    {"substance": "trimer 4: symmetric tris-disulfide crosslinked trimer generated from peptide 4 (chain 1 [Orn]CVF[NMeF]CED; chain 2 [Orn]AIIGL[Orn]V; also: symmetric tris-disulfide crosslinked trimer, macrocyclic by macrolactamization, linkage of strands not given here)", "values": [
      {"measurement": "A11 reactivity", "setting": "A11 antibody", "result": "yes"},
      {"measurement": "reaction with A11 antibody", "setting": "A11 antibody", "result": "react with the A11 antibody"},
      {"measurement": "oligomer state consistent with SEC elution volume", "setting": "[1]", "result": "hexamer"},
      {"measurement": "oligomer size by SEC", "setting": "[1]", "result": 6}
    ]}
  ]
}
